Measurements: US4517191A, “1-Amino-1,8-naphthyridine compounds useful as bactericides” (Sterling Drug Inc., priority 1983, dated 1985)
Values after ≈ are worked out from the molar mass of the structure shown.

How the values were obtained:
[1] = tested on: Klebsiella pneumoniae 39645; assay: in vivo antibacterial activity in infected female mice (K. pneumoniae); settings: Klebsiella pneumoniae, 39645, sc, 336 h, K. pneumoniae i.m. infection, s.c. 17 h and 1 h preinfection, 6 h postinfection, twice a day for next three days, deaths recorded for fourteen days, read-out: Protective Dose (PD50)
Protocol: (§1) The in vivo antibacterial activity of the compounds of the invention was determined in female mice, 18-20 grams each, by the following procedure:
(§2) Aqueous solutions of the compounds of Formula I where R" is hydrogen were prepared by dissolving the free acid form in dilute sodium hydroxide and diluting the solution with distilled water to the desired volume.
(§3) Cultures of Escherichia coli Vogel prepared in brain heart infusion broth, and cultures of Klebsiella pneumoniae 39645 grown in tryptose phosphate broth with 5% rabbit serum diluted in the same broth were used to infect the mice as follows:
K. pneumoniae: mice were inoculated intramuscularly in the right hind leg with 0.2 ml of the bacterial test inoculum (2.05×10^4 cells/ml).
Mice infected with K. pneumoniae were medicated at the following times: seventeen hours and one hour preinfection, six hours postinfection and twice a day for the next three days. The test compound was administered the subcutaneous (0.2 ml) route. Deaths were recorded daily for fourteen days.
(§4) Groups of ten animals each for four or five dose levels were thus treated and the number of survivors in each group recorded. The fifty percent protective dose values (PD50) were then calculated.

Escherichia coli Vogel [2] = assay: in vivo antibacterial activity in infected female mice (E. coli); settings: sc, 168 h, E. coli i.p. infection, medicated once s.c. one-half hour post infection, deaths recorded for seven days, read-out: Protective Dose (PD50)
Protocol: as §1, §2, §3
E coli: mice were inoculated intraperitoneally with 0.5 ml of the bacerial test inoculum (1.87×10^7 and 5×10^6 cells/ml respectively).
Mice infected with E. coli were medicated once (0.5 ml) one-half hour post infection, the test compound being administered by the subcutaneous (s.c.) route. Deaths were recorded daily for seven days.
as §4

Bacteria = assay: in vitro antibacterial activity, serial dilution, stated for the bacteria as a whole; assay type: cell-based; settings: at the highest concentrations tested (62.5-500 mcg/ml)
Protocol: (§5) The in vitro antibacterial activity of the compounds of the invention was determined by conventional serial dilution procedures. Bacterial cultures were grown in tryptose phosphate broth or brain heart infusion broth (containing heat-inactivated normal horse serum for tests with S. pyogenes) overnight at 37° C. and subsequently diluted in double strength broth to provide bacterial inocula of about 2×10^5 cells/ml. Aqueous solutions of the compounds of Formula I where R" is hydrogen were prepared by dissolving the free acid form in 0.5N sodium hydroxide. The solutions were diluted with sterile distilled water to 1000 mcg/ml of compound in terms of the free acid. Serial two-fold dilutions of the compound stock solutions were prepared in water and 0.5 ml of each dilution was transferred to sets of tubes, one set for each bacterial inoculum. Each tube was then inoculated with 0.5 ml of the appropriate culture, resulting in a final bacterial concentration of about 1×10^5 cells/ml. The minimal inhibitory concentration (MIC), defined as the lowest concentration of the test compound to inhibit visible bacterial growth, was recorded after 18-20 hours of static incubation at 37° C. The results are recorded in Table I:
These are intermediates for the compounds of Examples 5 and 7.

Proteus mirabilis MGH-1 = assay: in vitro antibacterial activity, serial dilution (MIC); assay type: cell-based; settings: MGH1, 18-20 hours at 37° C., about 1×10^5 cells/ml, read-out: Minimal Inhibitory Concentration
Protocol: as §5, with “C.” for “C. The results are recorded in Table I:”

Escherichia coli Vogel [3] = assay: as above; assay type: cell-based; settings: 18-20 hours at 37° C., about 1×10^5 cells/ml, read-out: Minimal Inhibitory Concentration
Protocol: as §5, with “C.” for “C. The results are recorded in Table I:”

Proteus vulgaris 9920 = assay: as above; assay type: cell-based; settings: 18-20 hours at 37° C., about 1×10^5 cells/ml, read-out: Minimal Inhibitory Concentration
Protocol: as §5, with “C.” for “C. The results are recorded in Table I:”

[4] = tested on: Pseudomonas aeruginosa MGH-2; assay: as above; assay type: cell-based; settings: MGH2, 18-20 hours at 37° C., about 1×10^5 cells/ml, read-out: Minimal Inhibitory Concentration
Protocol: as §5, with “C.” for “C. The results are recorded in Table I:”

[5] = tested on: Klebsiella pneumoniae 39645; assay: as above; assay type: cell-based; settings: 18-20 hours at 37° C., about 1×10^5 cells/ml, read-out: Minimal Inhibitory Concentration
Protocol: as §5, with “C.” for “C. The results are recorded in Table I:”

[6] = tested on: Staphylococcus aureus Smith; assay: as above; assay type: cell-based; settings: 18-20 hours at 37° C., about 1×10^5 cells/ml, read-out: Minimal Inhibitory Concentration
Protocol: as §5, with “C.” for “C. The results are recorded in Table I:”

[7] = tested on: Streptococcus pyogenes C203; assay: as above; assay type: cell-based; settings: broth containing heat-inactivated normal horse serum, 18-20 hours at 37° C., about 1×10^5 cells/ml, read-out: Minimal Inhibitory Concentration
Protocol: as §5, with “C.” for “C. The results are recorded in Table I:”

With `CCOC(=O)c1cn(N(C=O)CC)c2nc(C)ccc2c1=O` [Example 6, Ethyl 1-(N-formylethylamino)-1,4-dihydro-7-methyl-4-oxo-1,8-naphthyridine-3-carboxylate] the ED50 [1] was > 200 mg/kg, the ED50 (Escherichia coli Vogel [2]) was 53.5 mg/kg and the “in vitro antibacterial activity” value (Bacteria) was “inactive”.

In the case of `CCOC(=O)c1cn(N)c2nc(C)ccc2c1=O` [Example 1, Ethyl 1-amino-1,4-dihydro-7-methyl-4-oxo-1,8-naphthyridine-3-carboxylate], the “in vitro antibacterial activity” value (Bacteria) is reported as “inactive”.

`CCNn1cc(C(=O)O)c(=O)c2ccc(C)nc21` [Example 7, 1-Ethylamino-1,4-dihydro-7-methyl-4-oxo-1,8-naphthyridine-3-carboxylic acid] was tested, and the ED50 [1] was > 200 mg/kg, the ED50 (Escherichia coli Vogel [2]) was 93 mg/kg and the MIC (Proteus mirabilis MGH-1) was 250 µg/mL (≈ 1010 µM). For the same compound, the MIC (Escherichia coli Vogel [3]) was 31.3 µg/mL (≈ 127 µM), the MIC (Proteus vulgaris 9920) was 15.6 µg/mL (≈ 63.1 µM) and the MIC [4] was > 500 µg/mL. The MIC [5] was 125 µg/mL (≈ 506 µM), the MIC [6] was > 500 µg/mL and the MIC [7] was > 500 µg/mL.

For `Cc1ccc2c(=O)c(C(=O)O)cn(N)c2n1` [Example 2, 1-Amino-1,4-dihydro-7-methyl-4-oxo-1,8-naphthyridine-3-carboxylic acid], the “in vitro antibacterial activity” value (Bacteria) was “inactive”.

For `CNn1cc(C(=O)O)c(=O)c2ccc(C)nc21` [Example 5, 1,4-Dihydro-7-methyl-1-methylamino-4-oxo-1,8-naphthyridine-3-carboxylic acid], the ED50 [1] was > 200 mg/kg, the ED50 (Escherichia coli Vogel [2]) was 141 mg/kg and the MIC (Proteus mirabilis MGH-1) was 62.5 µg/mL (≈ 268 µM). For the same compound, the MIC (Escherichia coli Vogel [3]) was 31.3 µg/mL (≈ 134 µM), the MIC (Proteus vulgaris 9920) was 62.5 µg/mL (≈ 268 µM) and the MIC [4] was > 500 µg/mL. The MIC [5] was 62.5 µg/mL (≈ 268 µM), the MIC [6] was > 500 µg/mL and the MIC [7] was > 500 µg/mL.

`CCOC(=O)c1cn(N(C)C=O)c2nc(C)ccc2c1=O` [Example 4, Ethyl 1-(N-formylmethylamino)-1,4-dihydro-7-methyl-4-oxo-1,8-naphthyridine-3-carboxylate] was tested, and the “in vitro antibacterial activity” value (Bacteria) was “inactive”.
